Measured values: EP4570798A1, “AROMATIC HETEROCYCLIC CYCLOHEXYL AMINOALKYL PIPERIDINE DERIVATIVE, PREPARATION METHOD AND USE THEREOF” (Jiangsu NHWA Pharmaceutical Co., Ltd, priority 2022, dated 2024)

How the values were obtained:
Dopamine D3 receptor = molecular target: T1, Dopamine D3 receptor (Homo sapiens, UniProt P35462); experiment: In vitro dopamine D3 receptor function experiment (CHO-K1/D3/CRE reporter, chemiluminescence); type: cell-based; settings: for EC50: forskolin 0.4 µM; for Emax: maximum activation rate
T1 construct: expressed in transfected cells; host or cells: CHO-K1
Description: 3.1.1 Cell information: CHO-K1/D3/CRE constructed by referring to the method in Example 5 of CN114369578A.
The first day: cell plating • (1) The cultured cells were digested with trypsin, and after the digestion was terminated with culture medium, the cell suspension was transferred to a centrifuge tube and centrifuged at 750 rpm for 5 min. • (2) The supernatant was discarded, and the pellet was resuspended in an appropriate amount of plating medium.
The following day: experimental detection • (1) The test compounds were diluted to 0.2 mM with DMSO, and the reference compound dopamine was diluted to 0.02 mM. • (2) Compound dilution (4-fold dilution at 8 concentration points) was performed using Bravo, with the starting concentrations of the test compounds and the reference compound being 5 µM and 500 nM, respectively. […] The program selected was an ultrasensitive chemiluminescence detection program.

[1] = In vitro liver microsome stability, CD-1 mouse; settings: for CLint scaled at 1 µM / half-life at 1 µM / microsomal CLint at 1 µM: CD-1, mouse, liver microsomes, pH 7.4; for CLint(liver): CD-1 mouse liver microsomes
Description: (§1) • (1) Buffer preparation: 73.21 g of dipotassium hydrogen phosphate trihydrate and 10.78 g of potassium dihydrogen phosphate were dissolved in 4000 mL of ultrapure water. The pH of the solution was adjusted to within 7.40 ± 0.10 using 10% phosphoric acid or 1 M potassium hydroxide, resulting in a final concentration of 100 mM. • (2) Solution preparation and dilution: Stock solutions of the test compounds at a concentration of 10 mM were prepared in dimethyl sulfoxide (DMSO) and stored at 4 °C, and they were diluted into 100 µM working solutions with pure acetonitrile when used. A stock solution of the control compound testosterone at a concentration of 10 mM was prepared in DMSO and stored at -20 °C, and it was diluted into a 400 µM working solution with pure acetonitrile when used. • (3) Termination solution preparation: The termination solution was acetonitrile containing the internal standard buspirone. The prepared termination solution was stored in a refrigerator at 2-8 °C. • (4) Liver microsome solution preparation: Microsomes from various species (CD-1 mouse, SD rat, and human) were diluted into a 20× working solution using 100 mM potassium phosphate buffer. The final concentration of the microsomes in the reaction system was 0.5 mg/mL. • (5) Reduced nicotinamide adenine dinucleotide phosphate (NADPH) regeneration system preparation: Appropriate amounts of nicotinamide adenine dinucleotide phosphate (NADP), glucose-6-phosphate (G6P), magnesium chloride (MgCl2), and glucose-6-phosphate dehydrogenase (G6PDH) were weighed to prepare stock solutions at concentrations of 65.33 mM, 330 mM, 300 mM, and 250 Units/mL, respectively. The four stock solutions described above were each added to an appropriate amount of buffer, and the mixture was mixed well by gently inverting up and down. […] Several incubation plates were prepared and named T0, T5, T10, T20, T40, T60, PB60, and NCF60, respectively. […] The NCF60 plate was incubated for 60 min with potassium phosphate buffer replacing the NADPH regeneration system solution. The PB60 plate was incubated for 60 min with potassium phosphate buffer replacing the liver microsomes. Samples under all conditions were prepared in triplicate.
(§2) 2 µL of the test compound or control compound and 100 µL of microsome working solution (containing 1 mg/mL liver microsome protein) were added to each of the T0, T5, T10, T20, T40, T60, and NCF60 plates, and 2 µL of the test compound and 100 µL of potassium phosphate buffer were added to the PB60 plate. The plates described above were then pre-incubated in a 37 °C water bath for about 5 min.
(§3) After the pre-incubation, 600 µL of the termination solution was first added to the T0 samples, followed by the addition of 98 µL of NADPH regeneration system working solution. The plate was sealed, shaken, and then allowed to wait for simultaneous processing with subsequent samples. Except for the NCF60 plate where 98 µL of potassium phosphate buffer was added to each sample well, 98 µL of NADPH regeneration system working solution was added to each sample well of the other incubation plates to initiate the reaction. In the reaction system, the final concentrations of the test compound and the control compound were 1 µM and 4 µM, respectively, the concentration of the liver microsomes was 0.5 mg/mL, and the final concentrations of DMSO and acetonitrile were 0.01% (v/v) and 0.99% (v/v), respectively.
(§4) After incubation for an appropriate time (such as 5, 10, 20, 40, and 60 min), 600 µL of the termination solution containing the internal standard was added to each test compound sample and control compound well to terminate the reaction. The plates were sealed, shaken well, and then centrifuged at 4000 ×g and 4 °C for 15 min.

[2] = In vitro liver microsome stability, SD rat; settings: for CLint(liver): SD rat liver microsomes; for CLint scaled at 1 µM / half-life at 1 µM / microsomal CLint at 1 µM: SD, rat, liver microsomes, pH 7.4
Description: as §1, §2, §3, §4

[3] = In vitro liver microsome stability, human; settings: for CLint(liver): Human liver microsomes; for CLint scaled at 1 µM / half-life at 1 µM / microsomal CLint at 1 µM: human, liver microsomes, pH 7.4
Description: as §1, §2, §3, §4

5-HT1A = molecular target: T2, 5-HT1A (Homo sapiens, UniProt P08908); experiment: In vitro 5HT1A receptor function experiment (cAMP, forskolin-stimulated HEK293/5HT1A cells); type: cell-based; parameters: expressed in transfected cells; host or cells: HEK293; settings: for EC50: forskolin 1 µM; for Emax: maximum activation rate
T2 sequence (P08908 1-422): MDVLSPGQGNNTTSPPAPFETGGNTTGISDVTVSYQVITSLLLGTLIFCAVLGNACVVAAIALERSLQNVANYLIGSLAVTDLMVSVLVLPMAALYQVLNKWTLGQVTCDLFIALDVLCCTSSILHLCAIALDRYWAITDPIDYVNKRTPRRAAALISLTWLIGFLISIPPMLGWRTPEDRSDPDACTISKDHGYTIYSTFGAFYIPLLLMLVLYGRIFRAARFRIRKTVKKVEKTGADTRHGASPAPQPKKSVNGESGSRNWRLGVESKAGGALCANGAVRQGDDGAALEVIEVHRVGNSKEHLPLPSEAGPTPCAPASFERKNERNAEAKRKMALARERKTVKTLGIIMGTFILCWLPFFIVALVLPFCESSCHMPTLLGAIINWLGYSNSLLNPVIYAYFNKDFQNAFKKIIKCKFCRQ
Description: 1.1.1 Cell information: HEK293/5HT1A: a stably transfected cell strain HEK293/5HT1A constructed by adopting 5HT1A receptor lentivirus to infect HEK293; growth culture medium: DMEM, 10% FBS, and 0.6 µg/mL puro; and cryopreservation culture medium: 70% culture medium, 20% FBS, and 10% DMSO.

T1 sequence (P35462 whole entry, species assumed): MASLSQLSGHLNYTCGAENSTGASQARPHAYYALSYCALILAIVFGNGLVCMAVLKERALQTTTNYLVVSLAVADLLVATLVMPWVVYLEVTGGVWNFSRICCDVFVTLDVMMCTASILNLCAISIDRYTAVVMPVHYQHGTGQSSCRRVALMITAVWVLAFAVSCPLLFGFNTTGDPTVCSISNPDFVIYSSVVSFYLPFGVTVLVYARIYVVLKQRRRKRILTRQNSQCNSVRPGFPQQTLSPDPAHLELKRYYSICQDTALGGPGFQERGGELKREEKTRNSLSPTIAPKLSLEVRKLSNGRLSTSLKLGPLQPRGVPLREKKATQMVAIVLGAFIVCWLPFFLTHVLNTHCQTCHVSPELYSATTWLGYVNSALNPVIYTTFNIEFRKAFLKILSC

For `CCCN(CC1CCN(c2cccc(Cl)c2Cl)CC1)[C@H]1CCc2nc(N)sc2C1` [Example 7, (S)-N^6-((1-(2,3-Dichlorophenyl)piperidin-4-yl)methyl)-N^6-propyl-4,5,6,7-tetrahydrobenzo[d]thiazole-2,6-diamine], the EC50 (Dopamine D3 receptor) was 2.9 nM and the Emax (Dopamine D3 receptor) was 122%.
Work on `CCCN(CC1CCN(c2cccc3sccc23)CC1)[C@H]1CCc2nc(N)sc2C1` [Example 9, (S)-N^6-((1-(Benzo[b]thiophen-4-yl)piperidin-4-yl)methyl)-N^6-propyl-4,5,6,7-tetrahydrobenzo[d]thiazole-2,6-diamine] yielded an EC50 (Dopamine D3 receptor) of 2.1 nM, an Emax (Dopamine D3 receptor) of 111% and a CLint scaled at 1 µM [1] of 38.6 to 210 mL/min/kg. The half-life at 1 µM [1] was 28.2 min, the microsomal CLint at 1 µM [1] was 49.1 µL/min/mg and the “CLint(liver)” value [1] was 194.5 mL/min/K g. For the same molecule, the “CLint(liver)” value [2] was 89.1 mL/min/K g, the CLint scaled at 1 µM [2] was 23.7 to 129 mL/min/kg and the half-life at 1 µM [2] was 28 min. For the same molecule, the microsomal CLint at 1 µM [2] was 49.5 µL/min/mg, the “CLint(liver)” value [3] was 33.4 mL/min/K g and the CLint scaled at 1 µM [3] was 8.9 to 48.3 mL/min/kg. It also gave a half-life at 1 µM [3] of 37.4 min, a microsomal CLint at 1 µM [3] of 37.1 µL/min/mg and an EC50 (5-HT1A) of 30.2 nM. It also gave an Emax (5-HT1A) of 101%.
With `CCCN(CC1CCN(c2cccc3sccc23)CC1)[C@@H]1CCc2nc(N)sc2C1` [Example 11, (R)-N^6-((1-(Benzo[b]thiophen-4-yl)piperidin-4-yl)methyl)-N^6-propyl-4,5,6,7-tetrahydrobenzo[d]thiazole-2,6-diamine] the EC50 (Dopamine D3 receptor) was 3.3 nM, the Emax (Dopamine D3 receptor) was 109% and the EC50 (5-HT1A) was 130 nM. For the same molecule, the Emax (5-HT1A) was 92.6%.
With `CCCN(CC1CCN(c2cccc3sccc23)CC1)C1CCc2nc(N)sc2C1` (stereo not drawn) [Example 12, N^6-((1-(Benzo[b]thiophen-4-yl)piperidin-4-yl)methyl)-N^6-propyl-4,5,6,7-tetrahydrobenzo[d]thiazole-2,6-diamine] the EC50 (5-HT1A) was 31.4 nM and the Emax (5-HT1A) was 115%.
In the case of `CCN(CC1CCN(c2cccc3sccc23)CC1)[C@H]1CCc2nc(N)sc2C1` [Example 13, (S)-N^6-((1-(Benzo[b]thiophen-4-yl)piperidin-4-yl)methyl)-N^6-ethyl-4,5,6,7-tetrahydrobenzo[d]thiazole-2,6-diamine], the EC50 (Dopamine D3 receptor) is reported as 3 nM, the Emax (Dopamine D3 receptor) is reported as 133% and the EC50 (5-HT1A) is reported as 35.9 nM. For the same molecule, the Emax (5-HT1A) was 118%.
For `CCCN(CC1CCN(C(=O)c2ccc(F)c(Cl)c2)CC1)[C@H]1CCc2nc(N)sc2C1` [Example 15, (S)-(4-(((2-Amino-4,5,6,7-tetrahydrobenzo[d]thiazol-6-yl)(propyl)amino)methyl)piperidin-1-yl)(3-chloro-4-fluorophenyl)methanone], the EC50 (5-HT1A) was 4.7 nM and the Emax (5-HT1A) was 85.1%.
Molecule `CCCN(CCC1CCN(C(=O)c2ccc(F)c(Cl)c2)CC1)[C@H]1CCc2nc(N)sc2C1` [Example 16, (S)-(4-(2-((2-Amino-4,5,6,7-tetrahydrobenzo[d]thiazol-6-yl)(propyl)amino)ethyl)piperidin-1-yl)(3-chloro-4-fluorophenyl)methanone] has an EC50 (5-HT1A) of 143 nM and an Emax (5-HT1A) of 93.7%.
`CCCN(CC1CCN(C(=O)c2ccc(F)c(Cl)n2)CC1)[C@H]1CCc2nc(N)sc2C1` [Example 18, (S)-(4-(((2-Amino-4,5,6,7-tetrahydrobenzo[d]thiazol-6-yl)(propyl)amino)methyl)piperidin-1-yl)(6-chloro-5-fluoropyridin-2-yl)methanone] showed an EC50 (5-HT1A) of 48 nM and an Emax (5-HT1A) of 115%.
For `CCCN(CC1CCN(C(=O)c2ccc(F)nc2)CC1)[C@H]1CCc2nc(N)sc2C1` [Example 19, (S)-(4-(((2-Amino-4,5,6,7-tetrahydrobenzo[d]thiazol-6-yl)(propyl)amino)methyl)piperidin-1-yl)(6-fluoropyridin-3-yl)methanone], the EC50 (5-HT1A) was 184 nM and the Emax (5-HT1A) was 99.5%.
Work on `CCCN(CC1CCN(C(=O)c2ccc(C#N)nc2)CC1)[C@H]1CCc2nc(N)sc2C1` [Example 20, (S)-5-(4-(((2-Amino-4,5,6,7-tetrahydrobenzo[d]thiazol-6-yl)(propyl)amino)methyl)piperidine-1-carbonyl)pyridinecarbonitrile] yielded an EC50 (5-HT1A) of 131 nM and an Emax (5-HT1A) of 115%.
With `CCCN(CC1CCN(C(=O)c2cc3ccccc3[nH]2)CC1)[C@H]1CCc2nc(N)sc2C1` [Example 21, (S)-(4-(((2-Amino-4,5,6,7-tetrahydrobenzo[d]thiazol-6-yl)(propyl)amino)methyl)piperidin-1-yl)(1H-indol-2-yl)methanone] the EC50 (Dopamine D3 receptor) was 1.3 nM and the Emax (Dopamine D3 receptor) was 105%.
In the case of `CCCN(CC1CCN(C(=O)c2cc3ccccc3s2)CC1)[C@H]1CCc2nc(N)sc2C1` [Example 22, (S)-(4-(((2-Amino-4,5,6,7-tetrahydrobenzo[d]thiazol-6-yl)(propyl)amino)methyl)piperidin-1-yl)(benzo[b]thiophen-2-yl)methanone], the EC50 (5-HT1A) is reported as 99.3 nM and the Emax (5-HT1A) is reported as 115%.
Work on `CCCN(CC1CCN(C(=O)c2ccc3ccccc3c2)CC1)[C@H]1CCc2nc(N)sc2C1` [Example 23, (S)-(4-(((2-Amino-4,5,6,7-tetrahydrobenzo[d]thiazol-6-yl)(propyl)amino)methyl)piperidin-1-yl)(naphthalen-2-yl)methanone] yielded an EC50 (5-HT1A) of 202 nM and an Emax (5-HT1A) of 101%.
Molecule `CCCN(CC1CCN(C(=O)c2cccs2)CC1)[C@H]1CCc2nc(N)sc2C1` [Example 24, (S)-(4-(((2-Amino-4,5,6,7-tetrahydrobenzo[d]thiazol-6-yl)(propyl)amino)methyl)piperidin-1-yl)(thiophen-2-yl)methanone] has a CLint scaled at 1 µM [1] of 38.6 to 210 mL/min/kg, a half-life at 1 µM [1] of 46.9 min and a microsomal CLint at 1 µM [1] of 29.6 µL/min/mg. The “CLint(liver)” value [1] was 117.1 mL/min/K g, the “CLint(liver)” value [2] was 75.2 mL/min/K g and the CLint scaled at 1 µM [2] was 23.7 to 129 mL/min/kg. For the same molecule, the half-life at 1 µM [2] was 33.2 min, the microsomal CLint at 1 µM [2] was 41.8 µL/min/mg and the “CLint(liver)” value [3] was 34.3 mL/min/K g. It also gave a CLint scaled at 1 µM [3] of 8.9 to 48.3 mL/min/kg, a half-life at 1 µM [3] of 36.4 min and a microsomal CLint at 1 µM [3] of 38.1 µL/min/mg. It also gave an EC50 (5-HT1A) of 75.7 nM and an Emax (5-HT1A) of 96.5%.
Work on `CCCN(CC1CCN(C(=O)c2ccco2)CC1)[C@H]1CCc2nc(N)sc2C1` [Example 25, (S)-(4-(((2-Amino-4,5,6,7-tetrahydrobenzo[d]thiazol-6-yl)(propyl)amino)methyl)piperidin-1-yl)(furan-2-yl)methanone] yielded an EC50 (Dopamine D3 receptor) of 1.3 nM, an Emax (Dopamine D3 receptor) of 106% and an EC50 (5-HT1A) of 41.9 nM. The Emax (5-HT1A) was 112%.
With `CCCN(CC1CCN(C(=O)c2ccc[nH]2)CC1)[C@H]1CCc2nc(N)sc2C1` [Example 26, (S)-(4-(((2-Amino-4,5,6,7-tetrahydrobenzo[d]thiazol-6-yl)(propyl)amino)methyl)piperidin-1-yl)(1H-pyrrol-2-yl)methanone] the EC50 (Dopamine D3 receptor) was 1.2 nM, the Emax (Dopamine D3 receptor) was 109% and the EC50 (5-HT1A) was 16.4 nM. The Emax (5-HT1A) was 103%.
Work on `CCCN(CC1CCN(C(=O)c2cncs2)CC1)[C@H]1CCc2nc(N)sc2C1` [Example 27, (S)-(4-(((2-Amino-4,5,6,7-tetrahydrobenzo[d]thiazol-6-yl)(propyl)amino)methyl)piperidin-1-yl)(thiazol-5-yl)methanone] yielded a CLint scaled at 1 µM [1] of 38.6 to 210 mL/min/kg, a half-life at 1 µM [1] of 85.8 min and a microsomal CLint at 1 µM [1] of 16.2 µL/min/mg. The “CLint(liver)” value [1] was 64.0 mL/min/K g, the “CLint(liver)” value [2] was 25.5 mL/min/K g and the CLint scaled at 1 µM [2] was 23.7 to 129 mL/min/kg. For the same molecule, the half-life at 1 µM [2] was 97.9 min, the microsomal CLint at 1 µM [2] was 14.2 µL/min/mg and the “CLint(liver)” value [3] was 14.7 mL/min/K g. The CLint scaled at 1 µM [3] was 8.9 to 48.3 mL/min/kg, the half-life at 1 µM [3] was 84.9 min and the microsomal CLint at 1 µM [3] was 16.3 µL/min/mg. The EC50 (5-HT1A) was 87.3 nM and the Emax (5-HT1A) was 99.9%.
`CCCN(CC1CCN(C(=O)C2CCCCC2)CC1)[C@H]1CCc2nc(N)sc2C1` [Example 29, (S)-(4-(((2-Amino-4,5,6,7-tetrahydrobenzo[d]thiazol-6-yl)(propyl)amino)methyl)piperidin-1-yl)(cyclohexyl)methanone] gave an EC50 (Dopamine D3 receptor) of 2.8 nM, an Emax (Dopamine D3 receptor) of 111% and an EC50 (5-HT1A) of 107 nM. For the same molecule, the Emax (5-HT1A) was 118%.
`CCCN(CC1CCN(S(=O)(=O)c2ccccc2)CC1)[C@H]1CCc2nc(N)sc2C1` [Example 30, (S)-N^6-((1-(Phenylsulfonyl)piperidin-4-yl)methyl)-N^6-propyl-4,5,6,7-tetrahydrobenzo[d]thiazole-2,6-diamine] gave an EC50 (5-HT1A) of 39.9 nM and an Emax (5-HT1A) of 125%.
For `CCCN(CC1CCN(S(=O)(=O)c2ccc(F)c(Cl)c2)CC1)[C@H]1CCc2nc(N)sc2C1` [Example 31, (S)-N^6-((1-((3-Chloro-4-fluorophenyl)sulfonyl)piperidin-4-yl)methyl)-N^6-propyl-4,5,6,7-tetrahydrobenzo[d]thiazole-2,6-diamine], the EC50 (Dopamine D3 receptor) was 3.6 nM, the Emax (Dopamine D3 receptor) was 103% and the EC50 (5-HT1A) was 124 nM. For the same molecule, the Emax (5-HT1A) was 120%.
